One data set deals with CCRF-CEM cells. The data set is described as follows: Cytotoxicity against CCRF-CEM human tumor cells. It counts as cell-based. Particulars: for IC50: human cells CCRF-CEM, read-out: ID50 CCRFCEM; for inhibitory activity against human tumor cell line CCRF-CEM: in words.
The subject of the next data set is L-1210 cells. Briefly: Cytotoxicity against L-1210 mouse leukemia cells. It counts as cell-based. Conditions: for activity against mouse leukemic cells L-1210: in words.
Another data set concerns NL (Namalva) cells. The data set is described as follows: Cytotoxicity against NL (Namalva) human tumor cells. It counts as cell-based. Particulars: for IC50: NAMALVA, human cells NL, read-out: ID50 NL; for inhibitory activity against human tumor cell line Namalva: in words.
The subject of a further data set is P-813 cells. Briefly: Cytotoxicity against P-813 (text: P-815) mouse leukemia cells. It counts as cell-based. Particulars: for IC50: P815, mouse leukemia cells P-813, read-out: ID50 P-813; for activity against mouse leukemic cells P-815: in words.
Data set [1] has as its system L-1210 mouse leukemic cells. Conditions: in tissue culture; Wilson et al., J. Med. Chem., 13, 369 (1970); cited from earlier work.
Data set [2] has as its system Leishmania tropica promastigotes. Briefly: Growth inhibition of Leishmania tropica promastigotes. Particulars: 50% growth inhibition, read-out: inhibits the growth of Leishmania tropica promastigotes by 50% at the concentration. It counts as cell-based.

Consider `Nc1nc2c(ncn2[C@@H]2O[C@H](CO)[C@@H](O)[C@@H]2F)c(=O)[nH]1` [9-(2'-deoxy-2'-fluoro-β-D-arabinofuranosyl)-guanine], for which, in the data set on CCRF-CEM cells, the IC50 is under 0.1 µM and the “inhibitory activity against human tumor cell line CCRF-CEM” value is on record as “potent inhibitory activity”. Also, the “activity against mouse leukemic cells L-1210” value in the data set on L-1210 cells is listed as “modest”. In the data set on NL (Namalva) cells, the IC50 was 0.7 µM and the “inhibitory activity against human tumor cell line Namalva” value is reported as “potent inhibitory activity”. Further, in the data set on P-813 cells, the IC50 is 5.4 µM and the “activity against mouse leukemic cells P-815” value is “modest”.

As to `Nc1ccn([C@@H]2O[C@H](CO)[C@@H](O)[C@@H]2F)c(=O)n1` [FAC, 1-(2'-deoxy-2'-fluoro-β-D-arabinofuranosyl)cytosine], in data set [1], the “growth-inhibitory effect against L-1210 mouse leukemic cells” value was “comparable with that of 1-(β-D-arabinofuranosyl)cytosine (ara-C) and 1-(β-D-arabinofuranosyl)-5-fluorocytosine (ara-FC)”.

In the case of `Nc1nc(S)c2ncn([C@@H]3O[C@H](CO)[C@@H](O)[C@@H]3F)c2n1` [9-(2'-deoxy-2'-fluoro-β-D-arabinofuranosyl)-2-amino-6-thiopurine], in the data set with CCRF-CEM cells, the IC50 turned out to be 0.1 µM and the “inhibitory activity against human tumor cell line CCRF-CEM” value was “potent inhibitory activity”. Moreover, the “activity against mouse leukemic cells L-1210” value with L-1210 cells was “modest”. Also, in the data set with NL (Namalva) cells, the IC50 was 1.2 µM and the “inhibitory activity against human tumor cell line Namalva” value was “potent inhibitory activity”. Besides, in the data set on P-813 cells, the IC50 turned out to be 4.6 µM and the “activity against mouse leukemic cells P-815” value is listed as “modest”.

Regarding `OC[C@H]1O[C@@H](n2cnc3c(S)ncnc32)[C@@H](F)[C@@H]1O` [X = SH, Y = H, 9-(2'-deoxy-2'-fluoro-β-D-arabinofuranosyl)-6-thiopurine], the IC50 came out at 10 µM in the data set with CCRF-CEM cells, 2 µM in the data set with NL (Namalva) cells and 10 µM in the data set on P-813 cells.

For `O=c1[nH]cnc2c1ncn2[C@@H]1O[C@H](CO)[C@@H](O)[C@@H]1F` [9-(2'-deoxy-2'-fluoro-β-D-arabinofuranosyl)hypoxanthin], the IC50 in the data set on CCRF-CEM cells was 15.1 µM; in the data set on L-1210 cells (L1210, mouse leukemia cells L-1210, read-out: ID50 L-1210), over 30 µM; in the data set with NL (Namalva) cells, about 30 µM; in the data set with P-813 cells it was over 30 µM; in data set [2], 0.6 µM. Further, the “cytotoxicity against L-1210 cells” value with L-1210 cells (at the concentration of 100 μM) was “does not exhibit any cytotoxicity”.

As to `Nc1ncnc2c1ncn2[C@@H]1O[C@H](CO)[C@@H](O)[C@@H]1F` [X = NH2, Y = H, 9-(2'-deoxy-2'-fluoro-β-D-arabinofuranosyl)adenine], the IC50 with CCRF-CEM cells was 0.67 µM; with NL (Namalva) cells, 3 µM; with P-813 cells it was over 30 µM.

The record behind these values is patent publication US4751221A, “2-fluoro-arabinofuranosyl purine nucleosides” (Sloan-Kettering Institute for Cancer Research, priority 1985, dated 1988).
